Assay results published in patent US20220274980A1, “PHARMACOLOGICAL INHIBITORS OF THE ENL YEATS DOMAIN” (priority 2019, published 2022).

Columns and labels:
[1] = target: T1, ENL YEATS domain (association with H3K27cr) (Homo sapiens, UniProt Q03111); assay: biochemical; settings: ENL (YEATS)-H3K27cr HTRF (IC50, μM)
T1 sequence (Q03111 1-148): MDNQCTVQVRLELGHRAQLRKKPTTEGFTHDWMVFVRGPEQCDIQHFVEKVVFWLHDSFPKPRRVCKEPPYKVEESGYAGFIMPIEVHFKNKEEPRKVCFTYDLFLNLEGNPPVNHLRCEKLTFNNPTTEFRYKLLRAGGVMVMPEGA
Experimental: (§1) Protein Production. Double stranded DNA fragments encoding the protein sequence of ENL YEATS(1-148) were synthesized (IDT DNA) for assembly-based cloning into a modified expression vector backbone derived from pET21a (Novagen). The protein was fused to a StrepII-SUMO and 6×His tag on the amino and carboxy terminus, respectively. Transformed BL21(DE3) cells (New England Biolabs) were grown at 37° C. in 2×YT growth medium to an OD600 of 0.6. Protein expression was induced at 25° C. with the addition of isopropyl-β-D-thiogalactopyranoside (IPTG) to a final concentration of 0.4 mM. The culture was harvested by centrifugation following a 20-hour incubation and subsequently purified by immobilized metal affinity chromatography. Cells were resuspended 50 mM Tris-HCl pH 8.0, 300 mM NaCl, 10% glycerol, 10 mM imidazole, 1 mM DTT containing Complete EDTA-free protease inhibitor (Roche) and lysed by two passes through a MicroFluidizer at 10,000 psi. The lysate was clarified by centrifugation at 16,000 rpm for 30 minutes at 4° C. The supernatant was passed over NiNTA agarose (QIAGEN) and the protein was eluted in 50 mM Tris-HCl pH 8.0, 300 mM NaCl, 10% glycerol, 250 mM imidazole, 1 mM DTT. Fractions containing the ENL YEATS(1-148) fusion protein were buffer exchanged into 100 mM Tris-HCl pH 8.0, 150 mM NaCl, 1 mM EDTA, 1 mM DTT using PD10 desalting columns (GE Life Sciences). Ulp1 protease was added to cleave the StrepII-SUMO fusion and the reaction mixture was incubated overnight at 4° C. The cleavage reaction mixture was loaded onto a StrepTrap column (GE Life Sciences) and ENL YEATS(1-148) was recovered in the flow through. BRD4 BD1 was purchased from Cayman (Cat. No. 11720).
(§2) Homogenous time-resolved FRET (HTRF) histone-binding assays. Both HTRF assays were performed by combining recombinant protein and synthetic histone peptide in assay buffer (25 mM HEPES pH 7, 20 mM NaCl, 0.2% Pluronic F-127, and 0.05% BSA) with 1 nM LanthaScreen Eu-anti-His Tag antibody (ThermoFisher, Cat. No, PV5597) and 8.9 nM SureLight allophycocyanin-streptavidin (Perkin Elmer, APC-SA, Cat. No. CR130-100). ENL YEATS was used at 5 nM and BRD4 BD1 was used at 10 nM. ENL assays were performed with H3(13-32)K27cr (13.3 and 100 nM, respectively), custom synthesized at ABclonal (N-terminal biotin, C-terminal amide); BRD4 BD1 assay was performed with 13.3 nM tetra-acetylated H4 (BioVision, Cat. No. 7144-01). Once all reagents were combined (with or without peptide), 10 μL was dispensed per well into black 384-well low-volume plates (Corning, Cat. No. 3821) and drug was added by pin tool transfer (Biomek FX). Assays were incubated for 2 or more hours before measurement of HTRF signal on a PHERAstar plate reader (BMG Labtech; simultaneous dual emission; excitation=337 nm, emission 1=665 nm, emission 2=620 nm). HTRF signal (ratio of emission 1 to emission 2) from vehicle-treated wells (maximum signal) and no-peptide-control wells (minimum signal) were used to calculate percent inhibition for drug-treated wells.

BRD4 bromodomain 1 (BD1) = target: T2, BRD4 bromodomain 1 (BD1) (Homo sapiens, UniProt O60885); assay: BRD4 (BD1)-H4 tetra-acetylated HTRF histone-binding assay
T2 construct: Selectivity against BRD4 bromodomain 1 (BD1), measured by HTRF; His; purchased Cayman 11720
Experimental: as §1, §2

ENL(YEATS)-HiBiT = target: T3, ENL(YEATS)-HiBiT (Homo sapiens, UniProt Q03111); assay: cell-based
T3 sequence (Q03111 1-138 limits assumed): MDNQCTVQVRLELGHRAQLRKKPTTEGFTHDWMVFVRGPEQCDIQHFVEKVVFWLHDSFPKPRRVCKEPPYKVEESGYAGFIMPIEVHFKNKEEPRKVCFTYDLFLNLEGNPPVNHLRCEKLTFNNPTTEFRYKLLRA
Experimental: Cellular thermal shift assay (CETSA). […] Cells were transferred to 384-well (20,000 cells per well in 20 μL) or 1,536-well (3,000 cells per well in 4 μL) plates and drug was transferred using a 100 nL pin tool for 384-well plates or acoustic transfer (Labcyte, Echo Liquid Handler) for 1,536-well plates. Luminescent detection of HiBiT was performed by combining an equal volume of Nano-Glo HiBiT Lytic Reagent (Promega, HiBiT Lytic Detection System, Cat. No. N3040) in each well. […] Briefly, cells were treated with drug, washed with PBS, heated to various temperatures in a thermocycler, cooled to room temperature, lysed by three rounds of freeze-thaw, and then clarified lystaes were subjected to immunoblot analysis.

IC50 ([1]; Table 1) | IC50 ([1]; Table 2) | IC50 (BRD4 bromodomain 1 (BD1); Table 1) | IC50 (BRD4 bromodomain 1 (BD1); Table 2) | IC50 (ENL(YEATS)-HiBiT) | Compound
2.9 µM | 2.9 µM | > 50 µM | > 50 µM | 80 µM | CC(C)NC(=O)c1ccc2nc(-c3ccc(C#N)cc3)cn2c1 [Compound 4]
4.1 µM | 4.1 µM | > 50 µM | > 50 µM | 62 µM | CC(C)NC(=O)c1ccc2nc(-c3ccncc3)cn2c1 [Compound 5]
6.8 µM | 6.8 µM | > 50 µM | > 50 µM | 80 µM | O=C(NCc1cccnc1)c1ccc2nc(-c3ccccc3)cn2c1 [Compound 9]
2.6 µM | 2.6 µM | > 50 µM | > 50 µM | 80 µM | Cc1ccc(-c2cn3cc(C(=O)NC(C)C)ccc3n2)cc1 [Compound 14]
0.506 µM | 0.506 µM | > 50 µM | > 50 µM | 4.04 µM | O=C(NC1CCC1)c1ccc2nc(-c3ccccc3)cn2c1 [Compound 15]
20 µM | 20 µM | > 50 µM | > 50 µM | 80 µM | O=C(NC1CCCC(O)C1)c1ccc2nc(-c3ccccc3)cn2c1 (stereo not drawn) [Compound 16]
4.8 µM | 4.8 µM | > 50 µM | > 50 µM | 80 µM | Cc1cccc(-c2cn3cc(C(=O)NC(C)C)ccc3n2)c1 [Compound 17]
4.5 µM | 4.5 µM | > 50 µM | > 50 µM | 80 µM | CC(C)NC(=O)c1ccc2nc(-c3cccc(C#N)c3)cn2c1 [Compound 18]
24 µM | 24 µM | > 50 µM | > 50 µM | 80 µM | COc1cccc(-c2cn3cc(C(=O)NC(C)C)ccc3n2)c1 [Compound 20]
1.3 µM | 1.3 µM | > 50 µM | > 50 µM | 80 µM | COc1ccc(-c2cn3cc(C(=O)NC(C)C)ccc3n2)cc1 [Compound 22]
1.8 µM | 1.8 µM | > 50 µM | > 50 µM | 41 µM | O=C(NC1CCCC1)c1ccc2nc(-c3ccccc3)cn2c1 [Compound 23]
12 µM | 12 µM | > 50 µM | > 50 µM | 80 µM | CC(NC(=O)c1ccc2nc(-c3ccccc3)cn2c1)c1ccncc1 (stereo not drawn) [Compound 24]
0.46 µM | 0.46 µM | > 50 µM | > 50 µM |  | CC(C)NC(=O)c1ccc2nc(-c3cccc(NS(=O)(=O)NCCCCCCCC(=O)O)c3)cn2c1 [Compound 63]
0.34 µM | 0.34 µM | > 50 µM | > 50 µM |  | CC(C)NC(=O)c1ccc2nc(-c3cccc(NS(=O)(=O)NCCCN4CCCC4)c3)cn2c1 [Compound 64]
0.32 µM | 0.32 µM | > 50 µM | > 50 µM |  | CC(C)NC(=O)c1ccc2nc(-c3cccc(NS(=O)(=O)NC[C@H]4CC[C@H](C(=O)O)CC4)c3)cn2c1 [Compound 65]
0.63 µM | 0.63 µM | > 50 µM | > 50 µM |  | CC(C)NC(=O)c1ccc2nc(-c3cccc(NS(=O)(=O)NCCC(=O)O)c3)cn2c1 [Compound 66]
0.33 µM | 0.33 µM | > 50 µM | > 50 µM |  | CC(C)NC(=O)c1ccc2nc(-c3cccc(NS(=O)(=O)NCCCn4ccnc4)c3)cn2c1 [Compound 67]
0.61 µM | 0.61 µM | > 50 µM | > 50 µM |  | CC(C)NC(=O)c1ccc2nc(-c3cccc(N=S(=O)(F)N4CCC[C@@H]4C(=O)O)c3)cn2c1 (stereo partly drawn) [Compound 68]
> 50 µM | > 50 µM |  |  | 27.3 µM | O=C(NC1COC1)c1ccc2nc(-c3ccccc3)cn2c1 [Compound 70]

IC50 ([1]; Table 1) | IC50 ([1]; Table 2) | IC50 (BRD4 bromodomain 1 (BD1); Table 1) | IC50 (BRD4 bromodomain 1 (BD1); Table 2) | IC50 (ENL(YEATS)-HiBiT) | Compound
1.17 µM | 1.17 µM |  |  | 5.52 µM | Cc1ccc(-c2cn3cc(C(=O)NC4CCC4)ccc3n2)cc1 [Compound 71]
2.29 µM | 2.29 µM |  |  | 8.9 µM | O=C(N[C@@H]1CCc2ccccc21)c1ccc2nc(-c3ccccc3)cn2c1 [Compound 74]
> 50 µM | > 50 µM |  |  | 35.4 µM | O=C(NC1CC(O)C1)c1ccc2nc(-c3ccccc3)cn2c1 (stereo not drawn) [Compound 76]
3.27 µM | 3.27 µM |  |  | 7.88 µM | COc1ccc(-c2cn3cc(C(=O)NC4CCC4)ccc3n2)cc1 [Compound 78]
21.3 µM | 21.3 µM |  |  | 25.6 µM | O=C(NC1CC(CO)C1)c1ccc2nc(-c3ccccc3)cn2c1 (stereo not drawn) [Compound 85]
1.3 µM | 1.3 µM |  |  | 2.51 µM | N#Cc1ccc(-c2cn3cc(C(=O)NC4CCC4)ccc3n2)cc1 [Compound 86]
0.163 µM | 0.163 µM |  |  | 7.75 µM | CC1CCCCN1CCNS(=O)(=O)Nc1cccc(-c2cn3cc(C(=O)NC4CCC4)ccc3n2)c1 (stereo not drawn) [Compound 96]
0.206 µM | 0.206 µM |  |  | 2.8 µM | O=C(NC1CCC1)c1ccc2nc(-c3cccc(NS(=O)(=O)NCCN4CCC(F)(F)CC4)c3)cn2c1 [Compound 97]
0.101 µM | 0.101 µM |  |  | 12 µM | O=C(NC1CCC1)c1ccc2nc(-c3cccc(NS(=O)(=O)NCC(=O)N4CCCCC4)c3)cn2c1 [Compound 98]
0.05 µM | 0.05 µM |  |  | 0.742 µM | O=C(NC1CCC1)c1ccc2nc(-c3cccc(NS(=O)(=O)NCCN4CCC(O)CC4)c3)cn2c1 [Compound 99]
0.243 µM | 0.243 µM |  |  | 6.14 µM | O=C(O)COC1CCN(CCC(=O)Nc2cccc(-c3cn4cc(C(=O)NC5CCC5)ccc4n3)c2)CC1 [Compound 111]
36 µM | 36 µM |  |  | 35 µM | O=C(NC1CCC1O)c1ccc2nc(-c3ccccc3)cn2c1 (stereo not drawn) [Compound 116]
10 µM | 10 µM |  |  | 19 µM | C#CC1CC(NC(=O)c2ccc3nc(-c4ccccc4)cn3c2)C1 (stereo not drawn) [Compound 117]
0.723 µM | 0.723 µM |  |  | 7 µM | O=C(NC1CC2(CC2)C1)c1ccc2nc(-c3ccccc3)cn2c1 [Compound 118]
13 µM | 13 µM |  |  | 23 µM | COC[C@@H]1CC[C@H]1NC(=O)c1ccc2nc(-c3ccccc3)cn2c1 [Compound 121]
6 µM | 6 µM |  |  | 19 µM | C#C[C@H]1C[C@@H](NC(=O)c2ccc3nc(-c4ccccc4)cn3c2)C1 [Compound 122]
21 µM | 21 µM |  |  | 56 µM | O=C(N[C@@H]1CC[C@H]1O)c1ccc2nc(-c3ccccc3)cn2c1 [Compound 124]
61 µM | 61 µM |  |  | 22 µM | CO[C@@H]1CC[C@H]1NC(=O)c1ccc2nc(-c3ccccc3)cn2c1 [Compound 126]
58 µM | 58 µM |  |  | 32 µM | COC[C@@H]1CC[C@@H]1NC(=O)c1ccc2nc(-c3ccccc3)cn2c1 [Compound 127]
